Test results: patent US7887827B2, “Use of malonomicin and analogs in fungicidal applications” (Dow AgroSciences LLC, priority 2006, dated 2011)

Key:
Format in all cases: in vivo
[1] = tested on: Venturia inaequalis (VENTIN); experiment: Curative test, Apple Scab (compound added 2 days after inoculation); conditions: curative at 200 ppm
[2] = tested on: Venturia inaequalis (VENTIN); experiment: One day protectant (1 DP) test, Apple Scab; conditions: 0.1 percent Spraymate X77 + 0.1 percent ammonium sulfate
[3] = tested on: Puccinia recondita f. sp. tritici (PUCCRT); experiment: Drop Line Test on wheat leaf, Brown Rust of Wheat; conditions: Drop Line Test 0.5 μg/leaf, 2 microliter drop
Protocol: Wheat (cultivar Monon) was grown in plastic pots (6.2 cm×8.75 cm) containing 50 percent mineral soil, 50 percent Metro-Mix 360 (W.R Grace and Co.) until the seedlings were 10-20 cm tall. These plants were then sprayed to runoff with the test compound at a rate of 200 ppm. After 24 hours the test plants were inoculated by spraying with an aqueous spore suspension of Puccinia recondita f. sp. tritici (PUCCRT). The plants were then transferred to a dew chamber for 24 hours, then to the greenhouse until disease developed on the untreated control plants. In Example 3, a Drop Line Test was used, wherein instead of spraying the plant to runoff, a 2 microliter drop was placed on the wheat leaf and observed for disease control.

SMILES	VENTIN percent control of plant disease, curative [1]	VENTIN percent control of plant disease ([2]; 50 ppm and 100 ppm)	VENTIN percent control of plant disease ([2]; rate 200 ppm)	PUCCRT percent control of plant disease, Drop Line Test [3]
NC[C@@H]1NC(=O)C(C(=O)CC(NC(=O)[C@@H](N)CO)(C(=O)O)C(=O)O)=C1O [Compound I, {[(2S)-2-amino-3-hydroxypropanoyl]amino}{2-[(5S)-5-(aminomethyl)-4-hydroxy-2-oxo-2,5-dihydro-1H-pyrrol-3-yl]-2-oxoethyl}malonic acid]	++^α (++ = 75-100 percent control of plant disease)	++ (++ = 75-100 percent control of plant disease)	+ (+ = 30-74 percent control of plant disease)	–
C[C@H](N)C(=O)NC(CC(=O)O)(CC(=O)C1=C(O)[C@H](CN)NC1=O)C(=O)O (stereo partly shown) [Compound III]	–	–	–	+ (+ = 30-74 percent control of plant disease)
